In patent publication US4199579A, “Carbamates of 2-haloergolines and 2-haloergolenes and process for the preparation thereof” (priority 1975, dated 1980):
≈ marks a conversion by molar mass, not a printed value. Structures can show the parent of a compound that is named as a salt. Where two headings read alike, the source gives them in different places.

Assays:
[1] = system: alpha-adrenergic receptors; experiment: Antiadrenalic (antiadrenergic) activity in vitro (a): antagonism of the spasmogenic effect of adrenaline on the seminal vesicle; format: cell-based, guinea pig
Description: More particularly the novel compounds display a vasodilatory activity on the peripheral circulatory system, an hypotensive activity and a spasmolytic effect on the gastrointestinal smooth muscles or a blocking activity towards the alpha-adrenergic receptors, both in "vitro" and in "vivo".
(a) J. Brugger, Helv. Physiol. Pharmacol. Acta 3, 117 (1945)
The product is antagonizing the spasmogenic effect of the adrenaline on the seminal vesicle of guinea pig at concentrations of between 0.1 and 10 pg/ml, as well as the vaso- constricting effect of the noradrenaline on the isolated and perfused caudal arteria of rat, at dosages of between 1 and 10 μg total. Furthermore it antagonizes the contracturing effect of adrenaline and noradrenaline on the "vas deferens" of guinea pig and rat, at concentrations of 0.1 to 10 ng/ml.

[2] = system: alpha-adrenergic receptors; experiment: Antiadrenalic activity in vivo (b): protection of rats from the lethal effect of adrenaline; parameters: species or system rat; details: for Antiadrenalic activity (b) vivo ED50: Table 2; for ED50 protecting rats from the lethal effect of adrenaline / activity higher than that of nicergoline: rat
[3] = system: alpha-adrenergic receptors; experiment: Protection of mice from the lethal effect of adrenaline; format: in vivo; details: mouse
[4] = system: isolated ileum of guinea pig; experiment: AntiBaCl2 activity in vitro (c): antagonism of the spasmogenic action of barium chloride on the isolated ileum; format: cell-based; details: Cavia porcellus, read-out: AntiBaCl2 (c) vitro EC50
Procedure: (c) Magnus, Pflugers Arch.Ges.Physiol. 102, 123 (1904)
The substance antagonizes the spasmogenic action of the barium chloride on the isolated ileum of guinea pig at dosages of between 1 and 5 μg/ml. […] On the isolated caudal arteria of rat, the compound II inhibits the vaso-constricting effect as caused by the perfusion with hyperpotassium Ringer's solution.

Acute toxicity in mice = format: in vivo, mouse; details: mouse, in vivo, mouse
Description: (§1) |Toxicity LD50 mice orally

anaesthetized cat = experiment: Arterial pressure in the anaesthetized cat; format: in vivo; details: Felis catus, iv, e.v., read-out: dosage from which arterial pressure is reduced
Procedure: (§2) In the anaesthetized cat and rat, the compound causes the arterial pressure to be reduced, starting from dosages of 50 and 30 μg/kg e.v. respectively. In the "pithed" rat the compound, when intravenously administered, antagonizes the hypertensive effect of the adrenaline (ED-50 46 mg/kg).

anaesthetized rat = experiment: Arterial pressure in the anaesthetized rat; format: in vivo; details: iv, e.v., read-out: dosage from which arterial pressure is reduced
Procedure: as §2

"pithed" rat = experiment: Antagonism of the hypertensive effect of adrenaline in the pithed rat; format: in vivo; details: iv, intravenously, read-out: ED-50 antagonizing the hypertensive effect of adrenaline
Procedure: as §2

acetylcholine = experiment: Anti-acetylcholinic activity in vitro; format: cell-based; details: ratio to alpha-blocking concentration
histamine = experiment: Anti-histaminic activity in vitro; format: cell-based; details: ratio to alpha-blocking concentration
serotonin = experiment: Anti-serotoninic activity in vitro; format: cell-based; details: ratio to alpha-blocking concentration
Beagle dogs = experiment: 7-month oral administration to Beagle dogs; format: in vivo, dog; details: 7 months, about 8 mg/kg per oral route
[5] = system: central nervous system (CNS); experiment: CNS behaviour tests (swimming of the rat, reserpine ptosis, tetrabenazine catatonia, motility and exploration, behaviour); format: in vivo, rat; mouse; rabbit; dog
Description: The compound belongs to the class of the ergolene derivatives in which substances are found which cause stimulating effects on the central nervous system (CNS); several behaviour tests have been carried out on animals, in order to assess a possible exciting and hallucinogen action.

mice = experiment: Acute toxicity in mice; format: in vivo, mouse; details: acute toxicity
Description: as §1

ptosis from reserpine = experiment: Antagonism to ptosis from reserpine; format: in vivo; details: po, read-out: Antagonism to ptosis from reserpine ED100
Anorexia = experiment: Anorexia; format: in vivo; details: po; orally
Anti-Parkinson activity = experiment: Anti-Parkinson activity; format: in vivo; details: po; orally
Antidepressant activity = experiment: Antidepressant activity; format: in vivo; details: route not given
Description: (§3) Coming now to examining the anti-asthmatic pharmaceutical compositions it has been ascertained that the compound described as D-2-bromo-6-methyl-8beta-(morpholinocarbolynoxymethyl)-ergoline, corresponding to the formula (4) is endowed with quite special [drawing 81] which render it particularly recommendable for the therapy of asthma. The compound of the formula (4) has the empirical formula C21 H26 N3 O3 Br and a mol. wt. of 448.38. It gives, with mineral and organic acid of nontoxic and pharmacologically acceptable nature, a number of salt. These are soluble in water as well as in the physiological solutions. Such are for example the maleate C25 H30 N3 O7 Br, m.p. 213° C.-216° C., or the methanesulfonate C22 H30 N3 O6 BrS, m.p. 265° C.-266° C. and can be prepared according to the conventional methods by treating the compound (4) with the equivalent quantities of the acid in an aqueous medium or in appropriate organic solvents and their mixtures such as the alcohols, the ethers, the lower aliphatic ketones and others, taken individually or in appropriate mixtures with each other as will be detailed in the Examples hereinafter. The pharmacological activity of the compound of formula (4) is unfolded in appropriate assays, carried out on the test animals and is especially conspicuous in the following test runs: […]

[6] = biological target: alpha-adrenergic receptors; details: in vitro; comparison compound, reference (d) or (e); cited from earlier work
[7] = system: alpha-adrenergic receptors; details: e.v.; comparison compound, reference (e); cited from earlier work
Myorelaxing activity = experiment: Myorelaxing activity; format: in vivo; details: route not given
Description: as §3

[8] = iv, e.v., Table 2, read-out: DL50 e.v. in the mouse

| Molecule | Antiadrenalic activity (a) vitro EC50 [1] | Antiadrenalic activity (b) vivo ED50 ([2]; e.v.) | EC50 [4] | LD50 (Acute toxicity in mice; [8]) | other results |
| --- | --- | --- | --- | --- | --- |
| CN1C[C@H](COC(=O)N2CCCCCC2)C[C@@H]2c3cccc4[nH]c(Br)c(c34)C[C@H]21 [Example 2, D-2-bromo-6-methyl-8beta-(perhydroazepinylcarbonyloxymethyl)-ergoline] | 0.0017 ng/mL | 0.008 mg/kg | 3.1 µg/mL (≈ 6.73 µM) | 39.4 mg/kg | ED50 protecting rats from the lethal effect of adrenaline ([2]; e.v.): 0.008 mg/kg; activity higher than that of nicergoline ([2]; intravenously): 2.5 times; activity higher than that of nicergoline ([2]; orally): 24 times; ED50 protecting rats from the lethal effect of adrenaline ([2]; per os): 0.37 mg/kg; ED50 protecting mice from the lethal effect of adrenaline ([3]; e.v.): 0.051 mg/kg; ED50 protecting mice from the lethal effect of adrenaline ([3]; per os): 0.61 mg/kg; minimal effective dose (anaesthetized cat): ≥ 0.05 mg/kg; minimal effective dose (anaesthetized rat): ≥ 0.03 mg/kg; ED50 ("pithed" rat): 0.046 mg/kg; anti-acetylcholinic activity: concentration higher than that showing the alpha-blocking effect (acetylcholine): 4500 times; anti-histaminic activity: concentration higher than that showing the alpha-blocking effect (histamine): 800 times; anti-serotoninic activity: concentration higher than that showing the alpha-blocking effect (serotonin): 200 times; macroscopic or microscopic alterations of the main organs (Beagle dogs): did not cause macroscopic or microscopic alterations; modifications of the weight, hematological and hematochemical parameters (Beagle dogs): did not cause modifications; ECG modifications ([5]; in vivo): ECG modifications of sedative type were always detected; exciting property in behaviour tests ([5]; rat, mice, rabbit, dog): no evidence were found of any exciting property |
| CN(C)C(=O)OC[C@@H]1C[C@@H]2c3cccc4[nH]c(Br)c(c34)C[C@H]2N(C)C1 [Example 4, D-2-bromo-6-methyl-8beta-(N,N-dimethylcarbamoyloxymethyl)-ergoline] | 10 ng/mL | 0.0112 mg/kg | 10 µg/mL (≈ 24.6 µM) | 7.1 mg/kg |  |
| CCN(CC)C(=O)OC[C@@H]1C[C@@H]2c3cccc4[nH]c(Br)c(c34)C[C@H]2N(C)C1 [Example 6, D-2-bromo-6-methyl-8beta-(N,N-diethylcarbamoyloxymethyl)-ergoline] | 4.7 ng/mL | 0.0803 mg/kg | 3.8 µg/mL (≈ 8.75 µM) | 13.7 mg/kg |  |
| CN1C[C@H](COC(=O)N2CCC2)C[C@@H]2c3cccc4[nH]c(Br)c(c34)C[C@H]21 [Example 7, D-2-bromo-6-methyl-8beta-(azetidinylcarbonyloxymethyl)-ergoline] | 5 ng/mL | 0.05 mg/kg | 1.4 µg/mL (≈ 3.35 µM) | 8.7 mg/kg |  |
| CN1C[C@H](COC(=O)N2CCCC2)C[C@@H]2c3cccc4[nH]c(Br)c(c34)C[C@H]21 [Example 10, D-2-bromo-6-methyl-8beta-(pyrrolydycarbonyloxy-methyl)-ergoline maleate] | 2 ng/mL | 0.0155 mg/kg | 4 µg/mL | 15 mg/kg |  |
| CN1C[C@H](COC(=O)N2CCCCC2)C[C@@H]2c3cccc4[nH]c(Br)c(c34)C[C@H]21 [Example 12, D-2-bromo-6-methyl-8beta-(piperidinocarbonyloxymethyl)-ergoline] | 3.7 ng/mL | 0.0202 mg/kg | 3.5 µg/mL (≈ 7.84 µM) | 50 mg/kg |  |
| CN1C[C@H](COC(=O)N2CCCCCC2)C[C@@H]2c3cccc4c3c(c(Br)n4C)C[C@H]21 [Example 14, D-2-bromo-1,6-dimethyl-8beta-(perhydroazepinylcarbonyloxymethyl) ergoline] |  |  |  |  | LD50 (Acute toxicity in mice; iv, mice, intravenously, compound (3), read-out: Toxicity LD50 mice, intravenously): 65 to 83 mg/kg; LD50 (Acute toxicity in mice; po, mice, orally, compound (3), read-out: Toxicity LD50 mice, orally): 600 mg/kg; acute toxicity in words (mice): well tolerated and poorly toxic; ED100 (ptosis from reserpine): 0.01 mg/kg; ED100 (Anorexia): 5 mg/kg; ED100 (Anti-Parkinson activity): 20 mg/kg |
| CN1CCN(C(=O)OC[C@@H]2C[C@@H]3c4cccc5[nH]c(Br)c(c45)C[C@H]3N(C)C2)CC1 [Example 18, D-2-bromo-6-methyl-8beta-(4,methylpiperazinyl-carbonyloxymethyl)-ergoline] | 50 ng/mL | > 0.32 mg/kg | > 100 µg/mL | 27.3 mg/kg |  |
| CN1C[C@H](COC(=O)N2CC3CCC(CC3)C2)C[C@@H]2c3cccc4[nH]c(Br)c(c34)C[C@H]21 [Example 20, D-2-bromo-6-methyl-8beta-(3-azabicyclo [3,2, 2]-nonanylcarbonyloxymethyl)-ergoline] | 375 ng/mL | 0.198 mg/kg | > 100 µg/mL | 50 mg/kg |  |
| N[C@@H](Cc1ccc(O)c(O)c1)C(=O)O [L-dopa, reference compound] |  |  |  |  | ED100 (Anti-Parkinson activity): 300 mg/kg |
| CC(N)Cc1ccccc1 (centres unmarked) [amphetamine, reference compound] |  |  |  |  | ED100 (Anorexia): 5 mg/kg |
| CN(C)CCCN1c2ccccc2CCc2ccccc21 [imipramine, reference compound] |  |  |  |  | ED100 (ptosis from reserpine; orally): 25 mg/kg; ED100 (Antidepressant activity): 25 mg/kg |
| CO[C@]12C[C@@H](COC(=O)c3cncc(Br)c3)CN(C)[C@@H]1Cc1cn(C)c3cccc2c13 [nicergoline, reference compound] |  |  |  | 74.3 mg/kg | EC50 ([4]; in vitro): 2.1 µg/mL (≈ 4.34 µM); Antiadrenalic activity (a) vitro EC50 [6]: 0.007 µg/mL; Antiadrenalic activity (b) vivo ED50 [7]: 0.02 mg/kg |
| CCC1(c2ccccc2)C(=O)NC(=O)NC1=O [phenobarbital, reference compound] |  |  |  |  | ED100 (Myorelaxing activity): 100 mg/kg |
| dihydroergotoxine |  |  |  |  | Antiadrenalic activity (a) vitro EC50 [6]: 0.078 µg/mL; Antiadrenalic activity (b) vivo ED50 [7]: 0.05 mg/kg |
